# From publication PMC8570331, “8-Hydroxyquinoline-Amino Acid Hybrids and Their Half-Sandwich Rh and Ru Complexes: Synthesis, Anticancer Activities, Solution Chemistry and Interaction with Biomolecules” (International Journal of Molecular Sciences, 2021)
# “Also recorded” adds a separate entry of the source.
# Legend:
# pGEX-6P-1 plasmid DNA = assay: In vitro DNA cleavage analysis, agarose gel electrophoresis; assay type: biochemical; conditions: 50 ng plasmid, 0–100 µM compound, 37 °C, up to 72 h, pH 7.4
# Method: In this assay, both single-stranded and double-stranded cleavage can be detected using bacterial plasmid DNA since the plasmid changes from the intact superhelical (sc) conformation to open circular (oc) and linear over digestion, which can be well detected by agarose gel electrophoresis. […] The RhCp* complex behaved similarly up to 10 µM, whereas at 100 µM concentration, the superhelical DNA remained intact during the incubation period, although the disappearance of the open circular DNA line is seen after 72 h. The observed effect is clearly not related to DNA cleavage; since fragmentation or the appearance of linear DNA could not be seen, the supercoiled DNA form was still visible. We can assume that the decrease in intensity might be due to the competition for DNA between the concentrated complex and EB (that is used for the detection of DNA in the gel).
# Before the measurements, the reaction buffer was treated with 5 mg/L Chelex-100 (Sigma-Aldrich) cation exchange resin for 30 min at 25 °C. This was followed by filtration of the buffer through 0.2 µm pore size sterile, non-pyrogenic/endotoxin-free non-cytotoxic PES filter (Sarstedt) under laminal flow. The tested compounds were dissolved in this filtered cation exchanged buffer. pGEX-6P-1 DNA was purified by GeneJET plasmid maxiprep kit (Thermo Scientific™, Waltham, MA, USA) and was treated with Chelex-100 resin and filtered as described previously, and was followed by buffer exchange of the DNA sample using Amicon 10K 0.5 mL filters (4 × 5 min, 14,000 g, 25 °C) to the filtered reaction buffer. […] Based on agarose gel electrophoresis, no genomic DNA contamination was detected, and the plasmid DNA is largely in superhelical conformation with a small fraction of open circular form. In a typical reaction, 10 µL aliquots containing 50 ng DNA and 0–100 µM compound were incubated at 37 °C from 0 h up to 3 days. The reaction mixture was immediately examined after incubation or frozen at −30 °C until the gel electrophoresis experiment. […] Images were recorded by a Uvitec BTS 20MS gel documentation system.
# [1] = Formation constants of RhCp* complexes by ligand displacement with 2-picolylamine; assay type: physicochemical; conditions: pH 7.4, displacement by 2-picolylamine, UV-vis, chloride-free
# Source text: Besides 2-picolylamine, the rigid aromatic 1,10-phenantroline (phen, Figure 6) or the excess of the 8-hydroxyquinoline ligand itself (Figure S20) also results in the loss of p-cymene. Two main processes were seen upon the addition of two equiv. phen to the complex (Figure 6). The first step is most probably the loss of the arene ring and the formation of a mixed-ligand complex [Ru(II)(HQCl-D-ProH−1)(phen)(H2O)2]^+ (λmax = 500 nm), which is followed by the slower binding of the second phen.
# Agilent Cary 8454 diode array spectrophotometer was utilized to obtain UV-vis spectra in the wavelength range 190–1100 nm. The path length (ℓ) was 1 cm in most cases (the actual ℓ is always indicated in the legends of the figures). The concentrations of the ligands and complexes were between 88 and 240 µM. For HSA and ct-DNA containing samples, complex concentrations were 100 µM, and 0.5 and 2 equiv. biomolecule were added for kinetic studies, respectively. Individual samples contained 0–20 µM HSA and 0–1.75 mM (nucleotide) ct-DNA. Spectra were always background corrected. The computer program HypSpec was used to obtain stability constants.
# Colo-205 cells = assay: Annexin V-FITC / propidium iodide apoptosis induction assay, flow cytometry; assay type: cell-based, human; conditions: 25 μM, 3 h induction
# Source text: 12H-Benzo[α]phenothiazine (M627) and cisplatin were used as positive controls. Annexin-V assay offers the possibility of detecting early phases of apoptosis. Apoptosis is a morphologically and biochemically distinct form of programmed cell death, which is the preferred mode of action for an anticancer compound. PI was used to distinguish between viable, early apoptotic and necrotic or late apoptotic cells. […] In order to better understand the different behavior of the studied compounds, an in-depth analysis of the various solution (physico-)chemical properties of the ligands and complexes were performed.
# The assay was carried out using an Annexin V-FITC Apoptosis Detection Kit from Sigma-Aldrich according to the manufacturer’s instructions. The concentration of the Colo-205 cell suspension was adjusted to approximately 0.5 × 10^6 cells per mL in RPMI 1640 medium, and the cell suspension was distributed in 1 mL aliquots into a 24-well plate and then incubated overnight at 37 °C and 5% CO2. The next day, the medium was removed and replaced by 1 mL RPMI 1640 medium containing the compounds except for the control samples. […] After the incubation period, the samples were washed with PBS, and a fresh medium was added to the samples. The cells were incubated overnight at 37 °C and 5% CO2. The next day, 200 μL 0.25% Trypsin (Trypsin-Versen) was added to the samples until cells appeared detached, followed by the addition of 400 μL of medium supplemented with 10% bovine serum. The cells were collected in Eppendorf tubes and centrifuged at 2000× g for 2 min. The harvested cells were re-suspended in a fresh serum-free RPMI 1640 culture medium. After this step, the apoptosis assay was carried out according to the protocol of the kit. The fluorescence was analyzed immediately using a ParTec CyFlow flow cytometer (Partec GmbH, Münster, Germany).
# [2] = Rate of complex formation followed by UV-vis; assay type: physicochemical; conditions: pH 0.7, equimolar ligand and [M(arene)(H2O)3]2+
# Method: The complex formation processes were followed in the absence of chloride ions, similar to our previous studies, to obtain comparative data. Time dependence of UV-vis spectra recorded for the equimolar solution of the ligand and [M(arene)(H2O)3]^2+ at pH 0.7 and 4.1 was followed. The charge-transfer band in the 340–500 nm region is a good indicator for complexation. […] The equilibration time decreased to <2 min for both RhCp* complexes at pH 4.1, while ~1.5 h was needed for the RuCym complexes, as it is shown in Figure S18. Although, in the isolated solid complexes, the neutral ligands are coordinated, in solution under this condition, the formation of complexes with the general formula [M(arene)(HQCl-D-(h)ProH−1)(H2O)]^+ is expected due to the deprotonation of the non-coordinating carboxyl group. In summary, these findings clearly indicate the high stability of the title complexes and the considerable difference in the rate of complex formation with the two types of metal ions.
# Agilent Cary 8454 diode array spectrophotometer was utilized to obtain UV-vis spectra in the wavelength range 190–1100 nm. The path length (ℓ) was 1 cm in most cases (the actual ℓ is always indicated in the legends of the figures). The concentrations of the ligands and complexes were between 88 and 240 µM. […]
structure (smiles),measurement,setting,value
"Cc1c(C)c(C)[c-](C)c1C.O=C(O)[C@H]1CCCC[NH+]1Cc1cc(Cl)c2cccnc2c1[O-].[Cl-].[Cl-].[Rh+3] [RhCp*–HQCl-D-hPro, [RhCp*(HQCl-D-hPro)Cl]Cl]",DNA cleavage / DNA damage,pGEX-6P-1 plasmid DNA,do not induce DNA cleavage
same,stability constant logK of the RhCp* complex,[1],13.35 ± 0.03
same,"cell death (Q1, A− PI+), gated events",Colo-205 cells,20.7%
same,"early apoptosis (Q3, A+ PI−), gated events",Colo-205 cells,0.838%
same,"late apoptosis and necrosis (Q2, A+ PI+), gated events",Colo-205 cells,7.5%
same,"late apoptosis and necrosis (Q2, A+ PI+), gated events",Colo-205 cells; listed as RhCp*‒HQCl-D-hPro,7.50%
same,time to reach complex formation equilibrium,[2],~ 3 min
"O=C(O)[C@H]1CCCCN1Cc1cc(Cl)c2cccnc2c1O [HQCl-D-hPro, (R)-5-chloro-7-((homoproline-1-yl)methyl)8-hydroxyquinoline]",DNA cleavage / DNA damage,pGEX-6P-1 plasmid DNA,do not induce DNA cleavage; also recorded: No DNA damage was observed
same,"cell death (Q1, A− PI+), gated events",Colo-205 cells,27.5%
same,"early apoptosis (Q3, A+ PI−), gated events",Colo-205 cells,0.987%
same,"late apoptosis and necrosis (Q2, A+ PI+), gated events",Colo-205 cells,9.1%
"Cc1ccc(C(C)C)cc1.O=C(O)[C@H]1CCC[NH+]1Cc1cc(Cl)c2cccnc2c1[O-].[Cl-].[Cl-].[Ru+2] [RuCym–HQCl-D-Pro, [RuCym(HQCl-D-Pro)Cl]Cl]","cell death (Q1, A− PI+), gated events",Colo-205 cells,27.9%
same,"early apoptosis (Q3, A+ PI−), gated events",Colo-205 cells,0.288%
same,"late apoptosis and necrosis (Q2, A+ PI+), gated events",Colo-205 cells,5.37%
"Cc1ccc(C(C)C)cc1.O=C(O)[C@H]1CCCC[NH+]1Cc1cc(Cl)c2cccnc2c1[O-].[Cl-].[Cl-].[Ru+2] [RuCym–HQCl-D-hPro, [RuCym(HQCl-D-hPro)Cl]Cl]",DNA cleavage / DNA damage,pGEX-6P-1 plasmid DNA,do not induce DNA cleavage; also recorded: No DNA damage was observed
same,"late apoptosis and necrosis (Q2, A+ PI+), gated events",Colo-205 cells,5.4%
"Cc1c(C)c(C)[c-](C)c1C.O=C(O)[C@H]1CCC[NH+]1Cc1cc(Cl)c2cccnc2c1[O-].[Cl-].[Cl-].[Rh+3] [RhCp*–HQCl-D-Pro, [RhCp*(HQCl-D-Pro)Cl]Cl]",stability constant logK of the RhCp* complex,[1],13.48 ± 0.03
same,time to reach complex formation equilibrium,[2],~ 30 min
